Here are results for seven molecules from ChEMBL document CHEMBL1128100, “Synthesis and evaluation of novel daunomycin-phosphate-sulfate --glucuronide and --glucoside prodrugs for application in adept” (Bioorg Med Chem Lett, 1995).

Counter-ions that a name gives are not always drawn.

For one data set, the system named is beta-glucosidase. The experiment in a line: Compound was tested for enzyme activation with 0.3 U/mL beta-glucosidase by measuring its half-life. The note with it: beta-glucosidase (isolated enzyme).
In a further data set the test system is EVSA-T. The experiment in a line: Antiproliferative activity of compound was tested against mammary carcinoma (EVSAT) human tumor cells. The data set is classed as functional, cell-based.
For the next data set, the system named is IGROV-1. The experiment in a line: Antiproliferative activity of compound was tested against ovarian carcinoma (IGROV) human tumor cells. The data set is classed as functional, cell-based.
The subject of a further data set is M19-MEL. The data set is described as follows: Antiproliferative activity of compound was tested against melanoma (M-19) human tumor cells. The data set is classed as functional, cell-based.
The next data set relates to MCF7. The data set is described as follows: Antiproliferative activity of compound was tested against mammary carcinoma (MCF-7) human tumor cells. The data set is classed as functional, cell-based.
The next data set has as its system WiDr. The data set is described as follows: Antiproliferative activity of compound was tested against colon carcinoma (WiDr) human tumor cells. It is filed as functional, cell-based.
The test system of another data set is A498. The experiment in a line: Antiproliferative activity of compound was tested against renal cancer (A-498) human tumor cells. The data set is classed as functional, cell-based.
A further data set relates to A204. The data set is described as follows: Antiproliferative activity of compound was tested against rhabdomyosarcoma (A-204) human tumor cells. The data set is classed as functional, cell-based.
For another data set, the system named is IGR-37 cell line. The experiment in a line: Antiproliferative activity of compound was tested against melanoma (IgR-37) human tumor cells. The data set is classed as functional, cell-based.
For the next data set, the system named is T-24. The data set is described as follows: Antiproliferative activity of compound was tested against bladder carcinoma (T-24) human tumor cells. The data set is classed as functional, cell-based.
The subject of another data set is beta-glucuronidase. The data set is described as follows: Compound was tested for enzyme activation with 0.03 U/mL beta-glucuronidase by measuring its half-life. The settings on record: beta-glucuronidase (isolated enzyme).

What is called half-life is how long it takes for the measured level to halve. A higher half-life goes with slow decline. As usually defined, the IC50 is the concentration needed to halve the response being measured. As for `COc1cccc2c1C(=O)c1c(O)c3c(c(O)c1C2=O)C[C@@](O)(C(C)=O)C[C@@H]3O[C@H]1C[C@@H](NC(=O)O[C@@H]2O[C@@H](C(=O)O)[C@@H](O)[C@H](O)[C@@H]2O)[C@H](O)[C@H](C)O1`, the half-life in the data set with beta-glucosidase is > 133 h. The 50% inhibitory concentration (IC50) was 280 µM in the data set with EVSA-T (evsa-t); 520 µM in the data set on IGROV-1 (igrov-1); 200 µM with M19-MEL (m19-mel); 125 µM in the data set on MCF7 (mcf7); 370 µM with WiDr (widr); 250 µM in the data set on A498 (a498).

As for `COc1cccc2c1C(=O)c1c(O)c3c(c(O)c1C2=O)C[C@@](O)(C(C)=O)C[C@@H]3O[C@H]1C[C@@H](NS(=O)(=O)O)[C@H](O)[C@H](C)O1`, the IC50 is 4.9 µM with A204 and 10400 µM with MCF7 (Homo sapiens, MCF7).

Consider `COc1cccc2c1C(=O)c1c(O)c3c(c(O)c1C2=O)C[C@@](O)(C(C)=O)C[C@@H]3O[C@H]1C[C@@H](N)[C@H](OP(=O)(O)O)[C@H](C)O1`, for which the half-maximal inhibitory concentration (IC50) with A204 was 17 µM; with IGR-37 cell line it was 45 µM; in the data set on MCF7 (Homo sapiens, MCF7), 89 µM; in the data set on WiDr (Homo sapiens, WiDr), 58 µM; in the data set on T-24, 3 µM.

`COc1cccc2c1C(=O)c1c(O)c3c(c(O)c1C2=O)C[C@@](O)(C(C)=O)C[C@@H]3O[C@H]1C[C@@H](NP(=O)(O)O)[C@H](O)[C@H](C)O1`: the IC50 in the data set with A204 amounted to 17 µM; in the data set with IGR-37 cell line, 96 µM; in the data set with MCF7 (Homo sapiens, MCF7), 370 µM; with WiDr (Homo sapiens, WiDr), 10 µM; in the data set with T-24, 2 µM.

Turning to `COc1cccc2c1C(=O)c1c(O)c3c(c(O)c1C2=O)C[C@@](O)(C(C)=O)C[C@@H]3O[C@H]1C[C@@H](NC(=O)O[C@@H]2O[C@@H](C(=O)[O-])[C@@H](O)[C@H](O)[C@@H]2O)[C@H](O)[C@H](C)O1.[Na+]`, the half-life in the data set with beta-glucuronidase was determined as 137 h. Further, the IC50 with EVSA-T (evsa-t) was found to be 13500 µM; in the data set with IGROV-1 (igrov-1), 36900 µM; with M19-MEL (m19-mel) it was 15800 µM; in the data set on MCF7 (mcf7) it was 11200 µM; in the data set with A498 (a498) it was 12100 µM.

Take `COc1cccc2c1C(=O)c1c(O)c3c(c(O)c1C2=O)C[C@@](O)(C(C)=O)C[C@@H]3O[C@H]1C[C@@H](N)[C@H](OS(=O)(=O)O)[C@H](C)O1`: the IC50 with A204 stood at 1.3 µM; in the data set with IGR-37 cell line it was 3000 µM; with MCF7 (Homo sapiens, MCF7), 870 µM; in the data set with T-24, 5500 µM.

With `COc1cccc2c1C(=O)c1c(O)c3c(c(O)c1C2=O)C[C@@](O)(C(C)=O)C[C@@H]3O[C@H]1C[C@H](N)[C@H](O)[C@H](C)O1` [DAUNORUBICIN HYDROCHLORIDE], the IC50 in the data set with A204 was 3 µM; in the data set with EVSA-T (Homo sapiens, EVSA-T), 2 µM; with IGR-37 cell line it was 11 µM; in the data set with IGROV-1 (Homo sapiens, IGROV-1) it was 18 µM; in the data set with M19-MEL (Homo sapiens, M19-MEL) it was 2 µM; in the data set with MCF7 (Homo sapiens, MCF7) it was 2 µM. Also, the half-maximal inhibitory concentration (IC50) in the data set with WiDr (Homo sapiens, WiDr) turned out to be 7 µM; with T-24 it was 2 µM; with A498 (Homo sapiens, A498), 3 µM.
